Test results from US9113629B2, “4-amino-6-(4-substituted-phenyl)-picolinates and 6-amino-2-(4-substituted-phenyl)-pyrimidine-4-carboxylates and their use as herbicides” (DOW AGROSCIENCES LLC, priority 2013, dated 2015).
Like-named read-outs stand apart in the source and are kept apart here.

Columns and labels:
[1] = tested on: Key Broadleaf Weed and Crop Species; assay: Post-emergent Test II herbicidal activity (Table 5); assay type: in vivo; conditions: post-emergence, 336 h, post-emergent, 14 days after application; for pest or weed control at 70 g/ha: application rate 70 g ai/ha; for pest or weed control at 140 g/ha: application rate 140 g ai/ha
Outline: (§1)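 Greenhouse-grown plants at first or second true leaf stage were sprayed post-emergence with compound in acetone/DMSO-based aqueous spray containing crop oil concentrate and surfactant, at 187 L/ha, highest rate plus ½× to 1/16× dilutions. After 14 d, injury was scored visually versus untreated plants, 0 (none) to 100% (complete kill).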

[2] = tested on: Key Grass and Sedge Weeds as well as Grass Crops; assay: Post-emergent Test II herbicidal activity (Table 6); assay type: in vivo; conditions: post-emergence, 336 h; for pest or weed control at 70 g/ha: application rate 70 g ai/ha; for pest or weed control at 140 g/ha: application rate 140 g ai/ha
Outline: as §1

[3] = ABUTH: velvetleaf (Abutilon theophrasti), read-out: Visual Growth Reduction (%) 14 Days After Application, ABUTH
[4] = AMARE: redroot pigweed (Amaranthus retroflexus), read-out: Visual Growth Reduction (%) 14 Days After Application, AMARE
[5] = BRSNN: oilseed-rape, canola (Brassica napus), read-out: Visual Growth Reduction (%) 14 Days After Application, BRSNN
[6] = CHEAL: lambsquarters (Chenopodium album), read-out: Visual Growth Reduction (%) 14 Days After Application, CHEAL
[7] = EPHHL: wild poinsettia (Euphorbia heterophylla), read-out: Visual Growth Reduction (%) 14 Days After Application, EPHHL
[8] = HELAN: sunflower (Helianthus annuus), read-out: Visual Growth Reduction (%) 14 Days After Application, HELAN
[9] = VIOTR: wild pansy (Viola tricolor), read-out: Visual Growth Reduction (%) 14 Days After Application, VIOTR
[10] = CYPES: yellow nutsedge (Cyperus esculentus), read-out: Visual Growth Reduction (%) 14 Days After Application, CYPES
[11] = DIGSA: crabgrass (Digitaria sanguinalis), read-out: Visual Growth Reduction (%) 14 Days After Application, DIGSA
[12] = ECHCG: barnyardgrass (Echinochloa crus-galli), read-out: Visual Growth Reduction (%) 14 Days After Application, ECHCG
[13] = ORYSA: rice (Oryza sativa), read-out: Visual Growth Reduction (%) 14 Days After Application, ORYSA
[14] = SETFA: giant foxtail (Setaria faberi), read-out: Visual Growth Reduction (%) 14 Days After Application, SETFA
[15] = SORVU: grain sorghum (Sorghum vulgare), read-out: Visual Growth Reduction (%) 14 Days After Application, SORVU
[16] = TRZSS (wheat, Triticum aestivum), read-out: Visual Growth Reduction (%) 14 Days After Application, TRZSS
[17] = ZEAMX: maize, corn (Zea mays), read-out: Visual Growth Reduction (%) 14 Days After Application, ZEAMX

Structure (SMILES)	pest or weed control at 70 g/ha [1, 3]	pest or weed control at 140 g/ha [1, 3]	pest or weed control at 70 g/ha [1, 4]	pest or weed control at 140 g/ha [1, 4]	pest or weed control at 70 g/ha [1, 5]	pest or weed control at 140 g/ha [1, 5]	pest or weed control at 70 g/ha [1, 6]	pest or weed control at 140 g/ha [1, 6]	pest or weed control at 70 g/ha [1, 7]	pest or weed control at 140 g/ha [1, 7]	pest or weed control at 70 g/ha [1, 8]	pest or weed control at 140 g/ha [1, 8]	pest or weed control at 70 g/ha [1, 9]	pest or weed control at 140 g/ha [1, 9]	pest or weed control at 70 g/ha [2, 10]	pest or weed control at 140 g/ha [2, 10]	pest or weed control at 70 g/ha [2, 11]	pest or weed control at 140 g/ha [2, 11]	pest or weed control at 70 g/ha [2, 12]	pest or weed control at 140 g/ha [2, 12]	other results
Nc1c(F)c(-c2cc(F)c(C(F)F)cc2F)nc(C(=O)O)c1Cl [Compound 178]	75 to 84%	75 to 84%	95 to 100%	95 to 100%	95 to 100%	95 to 100%	95 to 100%	95 to 100%	85 to 94%	95 to 100%	95 to 100%	95 to 100%	30 to 44%	45 to 59%	85 to 94%	85 to 94%	0 to 29%	45 to 59%	60 to 74%	85 to 94%	pest or weed control at 70 g/ha [2, 13]: 0 to 29%; pest or weed control at 140 g/ha [2, 13]: 0 to 29%; pest or weed control at 70 g/ha [2, 14]: 85 to 94%; pest or weed control at 140 g/ha [2, 14]: 85 to 94%; pest or weed control at 70 g/ha [2, 15]: 45 to 59%; pest or weed control at 140 g/ha [2, 15]: 60 to 74%; pest or weed control at 70 g/ha [2, 16]: 30 to 44%; pest or weed control at 140 g/ha [2, 16]: 45 to 59%; pest or weed control at 70 g/ha [2, 17]: 0 to 29%; pest or weed control at 140 g/ha [2, 17]: 30 to 44%; melting point: 86.1 to 88.4 °C
COC(=O)c1nc(-c2cc(F)c(C)cc2F)c(F)c(N)c1Cl [Compound 184]	95 to 100%	95 to 100%	85 to 94%	95 to 100%	85 to 94%	95 to 100%	85 to 94%	95 to 100%	85 to 94%	95 to 100%	95 to 100%	95 to 100%	0 to 29%	0 to 29%	0 to 29%	0 to 29%	0 to 29%	0 to 29%	45 to 59%	60 to 74%	pest or weed control at 70 g/ha [2, 13]: 0 to 29%; pest or weed control at 140 g/ha [2, 13]: 0 to 29%; pest or weed control at 70 g/ha [2, 14]: 0 to 29%; pest or weed control at 140 g/ha [2, 14]: 0 to 29%; pest or weed control at 70 g/ha [2, 15]: 0 to 29%; pest or weed control at 140 g/ha [2, 15]: 30 to 44%; pest or weed control at 70 g/ha [2, 16]: 0 to 29%; pest or weed control at 140 g/ha [2, 16]: 0 to 29%; pest or weed control at 70 g/ha [2, 17]: 0 to 29%; pest or weed control at 140 g/ha [2, 17]: 0 to 29%; melting point: 116.5 to 118.8 °C
COC(=O)c1nc(-c2cc(F)c(C)cc2F)nc(N)c1OC [Compound 185]	30 to 44%	45 to 59%	0 to 29%	0 to 29%	30 to 44%	45 to 59%	60 to 74%	95 to 100%	75 to 84%	85 to 94%	75 to 84%	85 to 94%	0 to 29%	0 to 29%	0 to 29%	0 to 29%	0 to 29%	0 to 29%	0 to 29%	0 to 29%	pest or weed control at 70 g/ha [2, 13]: 0 to 29%; pest or weed control at 140 g/ha [2, 13]: 0 to 29%; pest or weed control at 70 g/ha [2, 14]: 0 to 29%; pest or weed control at 140 g/ha [2, 14]: 0 to 29%; pest or weed control at 70 g/ha [2, 15]: 0 to 29%; pest or weed control at 140 g/ha [2, 15]: 0 to 29%; pest or weed control at 70 g/ha [2, 16]: 0 to 29%; pest or weed control at 140 g/ha [2, 16]: 0 to 29%; pest or weed control at 70 g/ha [2, 17]: 0 to 29%; pest or weed control at 140 g/ha [2, 17]: 0 to 29%; melting point: 163.4 to 164.8 °C
Nc1cc(-c2cc(F)c(OC(F)F)cc2F)nc(C(=O)O)c1Cl [Compound 187]	45 to 59%	60 to 74%	95 to 100%	95 to 100%	75 to 84%	75 to 84%	75 to 84%	95 to 100%	95 to 100%	95 to 100%	45 to 59%	60 to 74%	0 to 29%	0 to 29%	0 to 29%	30 to 44%	0 to 29%	0 to 29%	60 to 74%	60 to 74%	pest or weed control at 70 g/ha [2, 13]: 0 to 29%; pest or weed control at 140 g/ha [2, 13]: 0 to 29%; pest or weed control at 70 g/ha [2, 14]: 60 to 74%; pest or weed control at 140 g/ha [2, 14]: 75 to 84%; pest or weed control at 70 g/ha [2, 15]: 0 to 29%; pest or weed control at 140 g/ha [2, 15]: 0 to 29%; pest or weed control at 70 g/ha [2, 16]: 0 to 29%; pest or weed control at 140 g/ha [2, 16]: 45 to 59%; pest or weed control at 70 g/ha [2, 17]: 0 to 29%; pest or weed control at 140 g/ha [2, 17]: 0 to 29%; melting point: 167.4 to 170.2 °C
